Test results from publication PMC7483518, “Destabilizing single chain major histocompatibility complex class I protein for repurposed enterokinase proteolysis” (Scientific Reports, 2020).
Where two headings read alike, the source gives them in different places.

Assays:
[1] = molecular target: photolabile unchained HLA-A*11:01 pMHC-I protein (Homo sapiens, UniProt P04439, A114D/D185E/E176A/F33Y/L180Q/S129P/T187R); test: ELISA with photolabile unchained pMHC-I protein and UV irradiation; format: binding; settings: for ELISA450nm: Table 2, 62.5 nM photolabile pMHC-I mixture, 5 μM peptide in PBS, UV 365 nm 2 × 5 min on ice, 2 h room temperature on anti-β2m plate, Abs450nm − Abs570nm, instability cutoff < 0.6
[2] = tested on: HLA-A*11:01 single chain protein; format: biochemical, Human; parameters: EZ50kDa / EZ50kD (pH 6.2) / EZ50kD (pH 8) / EZ50kD (normalised: EBV1101 = 1, EBV0201 = 0) / EZ50kDa rank: unit not given beside the values;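 on EZ50kD (pH 6.2): scaled with positive control peptide as 1 and negative control peptide as 0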
[3] = Table 2, pH 6.2, 37 °C, enterokinase, Eq. (4), instability cutoff < 0.3
[4] = EASY MHC-I A*11:01, run 2019-08-06, 5min, mean of 2 replicates
[5] = EASY MHC-I A*11:01, run 2019-08-08, 5min, mean of 2 replicates
[6] = EASY MHC-I A*11:01, gel 2019-07-17 lr1028-1036 5min, replicate 1 (lanes 1-14)
[7] = EASY MHC-I A*11:01, gel 2019-07-17 lr1028-1036 5min, replicate 2 (lanes 15-28)
[8] = EASY MHC-I A*11:01, gel 2019-07-24 lr1046_ex1004 5min, replicate 1 (lanes 1-14)
[9] = EASY MHC-I A*11:01, gel 2019-07-24 lr1046_ex1004 5min, replicate 2 (lanes 15-28)
[10] = EASY MHC-I A*11:01, 2019-07-25, mean of the 2 replicates
[11] = EASY MHC-I A*11:01, 2019-07-26, mean of the 2 replicates
[12] = EASY MHC-I A*11:01, 2019-08-01, mean of the 2 replicates
[13] = EASY MHC-I A*11:01, run 2019-08-07, 5min, mean of 2 replicates

SSCSSCPLSK [reference compound]
ELISA450nm [1]: 1.272
EZ50kD (pH 6.2) [2, 3]: 0.6649
EZ50kD (pH 6.2) ([2]; pH 6.2): 0.9576
EZ50kD (pH 8) ([2]; pH 8): 0.8409

STIPETTVVR [putative peptide, HBV, no IEDB entry]
ELISA450nm [1]: 1.391
EZ50kD (pH 6.2) [2, 3]: 0.3226

STVQLIMQ [TM1002]
EASY_mean ([1]; […], mean, STDEV): -0.02917
EZ_mean [2, 4]: -0.09047

STVQLIMQLM [TM1021]
EASY_mean ([1]; […], mean, STDEV): -0.01593
EZ_mean [2, 5]: -0.03318
Norm_mean [2, 5]: -0.01917

STVQLIMQLMP [TM1032]
EASY_mean ([1]; ELISA signal, mean, […]): -0.06602
EZ_mean [2]: -0.1174

STVQLIMQLMPF [TM1043]
EASY_mean ([1]; […], mean, STDEV): -0.05995
EZ_mean [2]: -0.1271

TDFGRAKL [LR1004]
EASY_mean ([1]; […], mean, STDEV): -0.01664
EZ_mean [2]: -0.05517

TDFGRAKLL [LR1013]
EASY_mean ([1]; […], mean, STDEV): -0.002506
EZ_mean [2]: -0.005317

TDFGRAKLLG [LR1023]
EASY_mean ([1]; […], mean, STDEV): -0.02398
EZ_mean [2]: -0.0651

TDFGRAKLLGA [LR1034]
EASY_mean [1]: -0.04602
EZ_mean ([2]; EASY MHC-I A*11:01, gel 2019-07-17 lr1028-1036 5min, mean of 2 replicates): -0.04886
EZ50kD (normalised: EBV1101 = 1, EBV0201 = 0) [2, 6]: -0.06534
Norm (50 kDa band adj. volume normalised: Undig_37C = 1, Dig_37C = 0) [2, 6]: -0.06378
EZ50kD (normalised: EBV1101 = 1, EBV0201 = 0) [2, 7]: -0.03237
Norm (50 kDa band adj. volume normalised: Undig_37C = 1, Dig_37C = 0) [2, 7]: -0.02825

TDFGRAKLLGAE [LR1046]
EASY_mean [1]: -0.01889
EZ_mean ([2]; EASY MHC-I A*11:01, gel 2019-07-24 lr1046_ex1004 5min, mean of 2 replicates): -0.05291
EZ50kD (normalised: EBV1101 = 1, EBV0201 = 0) [2, 8]: -0.04519
Norm (50 kDa band adj. volume normalised: Undig_37C = 1, Dig_37C = 0) [2, 8]: -0.03888
EZ50kD (normalised: EBV1101 = 1, EBV0201 = 0) [2, 9]: -0.06064
Norm (50 kDa band adj. volume normalised: Undig_37C = 1, Dig_37C = 0) [2, 9]: 0.001098

TQLMPFGS [CS1001]
EASY_mean [1]: 0.00928
EZ_mean [2]: -0.06222

TQLMPFGSL [CS1010]
EASY_mean [1]: -0.009401
EZ_mean [2]: -0.05322

TQLMPFGSLLD [CS1031]
EASY_mean [1]: -0.03382
EZ_mean [2]: -0.07663

TQLMPFGSLLDY [CS1043]
EASY_mean [1]: 0.01363
EZ_mean [2]: -0.01577

TSPKANKE [EX1004]
EASY_mean [1]: -0.008845
EZ_mean [2]: -0.03458

TSPKANKEI [EX1009]
EASY_mean ([1]; […], mean, STDEV): -0.005092
EZ_mean [2, 10]: -0.03775

TSPKANKEIL [EX1015]
EASY_mean ([1]; […], mean, STDEV): -0.004833
EZ_mean [2, 11]: -0.1061

TSPKANKEILD [EX1022]
EASY_mean ([1]; ELISA signal, mean, […]): -0.01584
EZ_mean [2, 11]: -0.1213

TSPKANKEILDE [EX1030]
EASY_mean [1]: -0.0262
EZ_mean [2, 12]: -0.138

TSTVQLIM [TM1001]
EASY_mean ([1]; […], mean, STDEV): -0.02312
EZ_mean [2, 4]: -0.08359

TSTVQLIMQ [TM1010]
EASY_mean ([1]; […], mean, STDEV): -0.01875
EZ_mean [2, 13]: -0.07795

TSTVQLIMQL [TM1020]
EASY_mean ([1]; […], mean, STDEV): -0.02933
EZ_mean [2, 5]: -0.0424
Norm_mean [2, 5]: -0.03086

TSTVQLIMQLM [TM1031]
EASY_mean ([1]; […], mean, STDEV): -0.04936
EZ_mean [2]: -0.09739

TSTVQLIMQLMP [TM1042]
EASY_mean ([1]; ELISA signal, mean, […]): -0.04181
EZ_mean [2]: -0.1051

TVMDIISRR [reference compound]
ELISA450nm [1]: 1.944
EZ50kD (pH 6.2) [2, 3]: 1.086

TVQLIMQL [TM1003]
EASY_mean ([1]; […], mean, STDEV): -0.03257
EZ_mean [2, 4]: -0.09825

TVQLIMQLM [TM1012]
EASY_mean ([1]; […], mean, STDEV): -0.03295
EZ_mean [2, 13]: -0.1032

TVQLIMQLMP [TM1022]
EASY_mean ([1]; ELISA signal, mean, […]): -0.01505
EZ_mean [2, 5]: -0.0531
Norm_mean [2, 5]: -0.04425

TVQLIMQLMPF [TM1033]
EASY_mean ([1]; […], mean, STDEV): -0.06339
EZ_mean [2]: -0.1125

TVQLIMQLMPFG [TM1044]
EASY_mean ([1]; ELISA signal, mean, […]): -0.03569
EZ_mean [2]: -0.09806

VAIKTSPKA [EX1005]
EASY_mean ([1]; […], mean, STDEV): 0.004482
EZ_mean [2, 10]: -0.02025

VAIKTSPKAN [EX1011]
EASY_mean ([1]; ELISA signal, mean, […]): -0.005285
EZ_mean [2, 10]: -0.03763

VAIKTSPKANKE [EX1026]
EASY_mean [1]: -0.02113
EZ_mean [2, 12]: -0.1295

VQLIMQLM [TM1004]
EASY_mean ([1]; […], mean, STDEV): -0.05004
EZ_mean [2, 4]: -0.1305

VQLIMQLMP [TM1013]
EASY_mean ([1]; […], mean, STDEV): -0.03636
EZ_mean [2, 13]: -0.1096
